From the NIST ThermoML archive (doi:10.1016/j.jct.2016.01.019)

How the values were obtained:
[1] = refractive index (Na D-line) (dimensionless); conditions: 94.64 kPa, Liquid, Standard Abbe refractometry
[2] = refractive index (other wavelength) (dimensionless); conditions: 94.64 kPa, Liquid, Standard Abbe refractometry

CC(O)CO (stereo not drawn) [1,2-propanediol]
[1]
Conditions	refractive index
293.15 K	1.43219
298.15 K	1.4303
303.15 K	1.42921
308.15 K	1.42746
313.15 K	1.42566
318.15 K	1.42386

refractive index, [2]
Conditions	Wavelength=404.7 nm	Wavelength=435.8 nm	Wavelength=486.1 nm	Wavelength=546.1 nm	Wavelength=587.6 nm	Wavelength=632.8 nm	Wavelength=644 nm	Wavelength=706.5 nm
293.15 K	1.445	1.44204	1.43722	1.43406	1.43227	1.43023	1.43008	1.42866
298.15 K	1.4429	1.43967	1.43566	1.43245	1.4305	1.429	1.4289	1.42701
303.15 K	1.44135	1.43785	1.43417	1.43096	1.42927	1.42774	1.42734	1.42571
308.15 K	1.43955	1.43622	1.43239	1.42919	1.42752	1.426	1.42565	1.42397
313.15 K	1.43771	1.43437	1.43055	1.42738	1.42572	1.4242	1.42386	1.42219
318.15 K	1.43584	1.43252	1.42875	1.42557	1.42392	1.42243	1.42208	1.42043

OCCCO [propan-1,3-diol]
[1]
Conditions	refractive index
293.15 K	1.43932
298.15 K	1.43796
303.15 K	1.43665
308.15 K	1.43523
313.15 K	1.43385
318.15 K	1.43255

refractive index, [2]
Conditions	Wavelength=404.7 nm	Wavelength=435.8 nm	Wavelength=486.1 nm	Wavelength=546.1 nm	Wavelength=587.6 nm	Wavelength=632.8 nm	Wavelength=644 nm	Wavelength=706.5 nm
293.15 K	1.45177	1.44842	1.4444	1.44112	1.43939	1.43781	1.43746	1.43577
298.15 K	1.45037	1.447	1.44301	1.43975	1.43802	1.43645	1.43611	1.43441
303.15 K	1.44902	1.44566	1.44168	1.43844	1.43671	1.43514	1.4348	1.43312
308.15 K	1.44755	1.44419	1.44027	1.43699	1.43529	1.43375	1.4334	1.4317
313.15 K	1.44615	1.4428	1.43888	1.43562	1.43392	1.43238	1.43203	1.43035
318.15 K	1.44474	1.44141	1.43754	1.43429	1.43261	1.43109	1.43075	1.42908
